Results published in patent publication US12503426B2, “Synthetic derivatives of oleoyl-lysophosphatidylinositol (oleoyl-LPI) and uses thereof” (LIPOVEXA SRL, priority 2017, dated 2025).

Columns and labels:
[1] = tested on: NCI-H716 cells; assay: GLP-1 secretion in NCI-H716 cells, in vitro human L cells model (Examples 30-33); format: cell-based; settings: for Emax: Homo sapiens, NCI-H716, 2 h; for GLP-1 biosynthesis and secretion from NCI-H716 L cells / level of GLP-1 biosynthesis and secretion compared with oleoyl-LPI: 20 μM, 2 hours; for GLP-1 biosynthesis and secretion from NCI-H716 L cells: normalized against DMSO vehicle control; for activity in inducing and/or increasing secretion of GLP-1 from cells of the GI tract: summary statement, compared with oleoyl-LPI
Description: (§1) To evaluate the GLP-1 biosynthesis and secreting capabilities of the compounds of formula I in vitro using the human-derived cell line NCI-H716, 50,000 such cells were seeded per well of a 24-well plate pre-coated with a thin layer of Matrigel (0.15 mg/ml) in RPMI complete (RPMI additioned with FBS 10%, Glucose 2 g/L, Glutamine 4 mM, Sodium Bicarbonate 2 g/L, Pen/Strep 1× pH 7.4 at 37° C.) and incubated at 37° C. in humidified 5% CO2 atmosphere to induce endocrine differentiation.
After 48 hours, media was withdrawn and cells washed once with warm HBSS (Hank's balanced salt solution) and then incubated in duplicate for 2 hours with the different dilutions of the oleoyl-LPI, OEA, DMSO (as negative control), a test compound of formula I, and KR-62436 10 μg/ml, all dissolved in RPMI serum free (RPMI complete without FBS) at 37° C. in humidified 5% CO2 incubator. Supernatant were quickly collected on ice and stored at −80° C. before quantification of GLP-1 with a commercial ELISA (EMD Millipore) specific for active-GLP-1 species.
as §1, with “1×pH” for “1× pH”
After 48 hours, media was withdrawn and cells washed twice with pre-warm HBSS (Hank's balanced salt solution) and then incubated in duplicate for 2 hours with 250 μl of 20 μM of either oleoyl-LPI, DMSO (as negative control) or a test compound of formula I, and […], all dissolved in RPMI serum free (RPMI complete without FBS) at 37° C. in humidified 5% CO2 incubator. Compounds of formula I tested were ps297b, ps316a, ps318a, ps319a, ps321a and ps323.
Supernatant were quickly collected on ice and stored at −80° C. before quantification of GLP-1 with a commercial ELISA (EMD Millipore) specific for active-GLP-1 species (e.g., GLP-1 (7-36) amide) and […]).
Compounds of formula I were tested for GLP-1 secretion in NCI-H716 cells essentially as describe in examples 30 and 31 above. EC50 GLP-1 secretion readout results were standardized relative to maximum GLP-1 secretion obtained with oleoyl-LPI. EC50 readout results were rated as low GLP-1 secretion activity (0-20% of maximum GLP-1 secretion achieved with oleoyl-LPI), moderate (21-79% of maximum GLP-1 secretion achieved with oleoyl-LPI), and high GLP-1 activity (80% and more of maximum GLP-1 secretion achieved with oleoyl-LPI). Table 3 also outlines the R1, R2 and R3 substituents of the compounds of formula I.

[2] = tested on: Glutag cells; assay: GLP-1 secretion by Glutag cells; format: cell-based, murine; settings: Glutag cells
Description: Glutag cells were maintained in low glucose DMEM (Sigma) (1 g/L) containing 2.0 mM L-glutamine, 1.0 mM sodium pyruvate and supplemented with 10% FBS, 100 IU/ml penicillin, 100 μg/ml streptomycin at a 37° C. and 5% CO2.
Approximately 80,000 Glutag cells were plated in poly-L-lysine-coated 24-well culture plates and grown to about 80% confluence. NCI-H716 cells were seeded on growth factor reduced Matrigel™ (Becton Dickinson, Bedford, MA) in DMEM medium, supplemented with 10% FBS the day before the experiment. For NCI-H716 cells, approximately 25,000 cells were needed for this secretion experiment in order to have good stimulation with lower basal GLP-1 secretion. In brief, Glutag and NCI-H716 cells were washed twice and then incubated for 2 h with FBS-free DMEM containing 1% (M:C) alone (negative control), 10 μM forskolin as positive control (Sigma-Aldrich), or with different concentrations of Oleoyl-LPI. M:C was used as a solvent to prepare stock solutions of fatty acid derivatives and inhibitors. For secretion experiments, medium and cells were collected separately.
In separate studies, GLUTag or NCI-H716 cells were pre-treated for 1 hour with medium alone (1% DMSO, negative control), PD98059 (50 μM; Sigma Chemical Co.), H89 (10 μM; Santa Cruz) followed by treatment with oleoyl-LPI (20 μM), OEA (10 μM), AR231453(1 μM), PMA (10 μM) or forskolin (10 μM, positive control) in the presence of inhibitors, as appropriate, for about 2 h. Medium GLP-1 secretion was calculated as total GLP-1 content of medium normalised for the basal secretion of the control.
In order to investigate the role of different LPI species in enteroendocrine cells, murine (Glutag) and human (NCI-H716) L-cells were stimulated with the following different species of LPI: Arachidonyl-LPI, Stearoyl-LPI, Heptadecenoyl-LPI and oleoyl-LPI, as well as with OEA and LPC. Experiments were performed in duplicate, n=4 and the level of total GLP-1 was measured by ELISA.

[3] = tested on: colonic cells of the GI tract obtained from guinea pig; assay: Ex vivo GLP-1 biosynthesis and secretion, guinea pig GI tract cells; format: cell-based
Description: To test for this, a pregnant guinea pig was anesthetized with isoflurane and sacrificed via intra-cardial injection of pentobarbital. Colon and rectum were quickly collected and intraluminal content washed out with ice-cold HBSS. After a thorough cleansing from the faecal material, and gentle scraping of the internal mucosa, the tissue was minced into 3 to 5-millimetre pieces and resuspended into 50 ml of ice cold HBSS. Pellet was spun down and washed again in 50 ml of ice-cold HBSS. Supernatant was carefully removed, and the epithelial fragments were then resuspended for 30 minutes at 37° C. into a 5 ml solution of HEPES 25 mM, collagenase-P 1 mg/ml in HBSS, pH 7.4 at 37° C.
The tissue was then pelleted and resuspended further for about 30 to 40 additional minutes at 37° C. within a 10 ml solution of 1 mg/ml collagenase-P as above.
After the digestion, about 40 ml of pre-warmed DMEM complete media was added (FBS 10%, glucose 4.5 g/L, glutamine 4 mM, sodium pyruvate 1 mM, HEPES 25 mM, sodium bicarbonate 3.7 g/L, Pen/Strep 1× and Ciprofloxacin 10 μg/ml pH 7.4 at 37° C.). Crypts and individual cells were isolated with a […] nylon strainer, spun down at 200 g for 5 minutes, resuspended into 10 ml of DMEM complete media and plated into 20 wells of a 24-well plate coated with a 3D gel of 3 mg/ml Matrigel (BD, Biosciences, Oxford, UK). After one day of incubation at 37° C. 5% CO2 in a humidified incubator, cells were washed with 500 μl of warm HBSS, and treated with 250 μl DMEM serum free (Complete medium without FBS) additioned with KR-62436 10 μg/ml and individually the following drugs or compounds: Forskolin and IBMX (20 μM each), oleoyl-LPI, and the two oleoyl-LPI analogs and/or derivatives ps297b (prepared as described in example 13) and ps316a (prepared as described in example 22) were all tested in quadruplicate at 20 μM.
After a 2-hour long incubation at 37 C 5% CO2, the supernatants were collected on ice, and quickly stored at […]. Active GLP-1 levels (7-37 amide and 7-36) were quantified on 50 μl of supernatant with an ELISA commercial kit (EMD Millipore). DMSO was used as a negative control, the combination of Forskolin and IBMX was included as positive control activators GLP-1. GLP-1 levels measured were standardized against the DMSO control.
The EC50 levels each one of oleoyl-LPI, compound ps297b and compound ps316a were also measured in quadruplicates at the conclusion of the 2 hour incubation. Guinea pig cells obtained as described above were also incubated with […] in quadruplicates and subjected to 2-hour long incubation at 37 C 5% CO2 as described above and EC50 levels measured.

[4] = NCI-H716 cells, standardized relative to maximum GLP-1 secretion obtained with oleoyl-LPI

Row | Structure (SMILES) | Emax [1, 4] [%] | also measured
1 | CCCCCCCC/C=C\CCCCCCCC(=O)Nc1ccc(C(=O)O)cc1 [ps294a] | 0 to 20 | 
2 | CCCCCCCC/C=C\CCCCCCCC(=O)Nc1ccc(C#N)cc1F [ps306a] | 0 to 20 | 
3 | CC(C)c1noc(C2CCN(c3ncnc(Nc4ccc(S(C)(=O)=O)cc4F)c3[N+](=O)[O-])CC2)n1 [AR-231,453] |  | GLP-1 secretion ([2]; two hours treatment, compound alone): significantly increases GLP-1 secretion
4 | CCCCC/C=C\C/C=C\CCCCCCCC(=O)Nc1ccc(-c2nnn[nH]2)cc1F [ps323b] | 0 to 20 | GLP-1 biosynthesis and secretion from NCI-H716 L cells [1]: able to mediate GLP-1 biosynthesis and secretion
5 | CCCCCCCC/C=C\CCCCCCCC(=O)Nc1ccc(C#N)c(F)c1 [ps308c] | 0 to 20 | 
6 | CCCCCCCC/C=C\CCCCCCCC(=O)Nc1cccc(C#N)c1 [ps315a] | 0 to 20 | 
7 | CCCCCCCC/C=C\CCCCCCCC(=O)Nc1cccc(-c2nnn[nH]2)c1 [ps318a] | > 80 | GLP-1 biosynthesis and secretion from NCI-H716 L cells [1]: able to mediate GLP-1 biosynthesis and secretion; level of GLP-1 biosynthesis and secretion compared with oleoyl-LPI ([1]; NCI-H716 cells): higher than those achieved from oleoyl-LPI; activity in inducing and/or increasing secretion of GLP-1 from cells of the GI tract [1]: equal to or higher than oleoyl-LPI
8 | CCCCCCCC/C=C\CCCCCCCC(=O)Nc1ccc(-c2nnn[nH]2)cc1F [ps309a] | > 80 | activity in inducing and/or increasing secretion of GLP-1 from cells of the GI tract [1]: equal to or higher than oleoyl-LPI
9 | CCCCCCCC/C=C\CCCCCCCC(=O)Nc1ccc(C(=O)OC)cc1 [ps293a] | 0 to 20 | 
10 | CCCCC/C=C\C/C=C\C/C=C\C/C=C\CCCC(=O)NCc1ccc(O)c(OC)c1 [Arvanil, N-arachidonoyl-vanillyl-amide] |  | antagonist activity for GPR119 (inventors' conclusion) [2]: weak antagonist for GPR119; GLP-1 secretion, combination treatment ([2]; Arvanil together with AR-231,453): significantly reduced GLP-1 secretion; GLP-1 secretion, combination treatment ([2]; Arvanil with either OEA or LPI): significantly enhanced GLP-1 secretion
11 | CCCCCCCC/C=C\CCCCCCCC(=O)Nc1ccc(-c2nnn(C)n2)cc1 [ps298a] | 0 to 20 | 
12 | CCCCCCCC/C=C\CCCCCCCC(=O)Nc1ccc(-c2nnn[nH]2)c(F)c1 [ps312a] | 21 to 79 | 
13 | CCCCCCCC/C=C\CCCCCCCC(=O)Nc1ccc(OC)cc1 [ps301a] | 0 to 20 | 
14 | CCCCC/C=C\C/C=C\CCCCCCCC(=O)Nc1ccc(C#N)cc1F [ps319] | 0 to 20 | GLP-1 biosynthesis and secretion from NCI-H716 L cells [1]: able to mediate GLP-1 biosynthesis and secretion
15 | CCCCC/C=C\C/C=C\CCCCCCCC(=O)Nc1ccc(C#N)cc1 [ps314b] | 0 to 20 | 
16 | CCCCCCCCCCCCCCCC(=O)Nc1ccc(C#N)cc1 [ps317b] | 0 to 20 | 
17 | CCCCC/C=C\C/C=C\CCCCCCCC(=O)Nc1ccc(-c2nnn[nH]2)cc1 [ps316a] | > 80 | GLP-1 biosynthesis and secretion from NCI-H716 L cells [1]: able to mediate GLP-1 biosynthesis and secretion; level of GLP-1 biosynthesis and secretion compared with oleoyl-LPI ([1]; NCI-H716 cells): higher than those achieved from oleoyl-LPI; activity in inducing and/or increasing secretion of GLP-1 from cells of the GI tract [1]: equal to or higher than oleoyl-LPI; GLP-1 levels compared with oleoyl-LPI ([3]; 20 μM, 2 hours): above those observed for the endogenous GRP119 ligand, oleoyl-LPI; GLP-1 biosynthesis and secretion ex vivo ([3]; 20 μM, 2 hours, standardized against DMSO control): stimulated biosynthesis and secretion; stability after incubation ex vivo ([3]; 2 hours incubation ex vivo): remained stable after 2 hours incubation ex vivo; EC50 ([3]; Cavia porcellus, ex vivo incubation 2 hours, quadruplicates): 22.4 µM
18 | CCCCCCCC/C=C\CCCCCCCC(=O)Nc1ccc(O)cc1 [ps300b] | 0 to 20 | 
19 | CCCCCCCC/C=C\CCCCCCCC(=O)Nc1ccc(C#N)cc1 [ps292a] | 0 to 20 | 
20 | CCCCCCCC/C=C\CCCCCCCC(=O)Nc1ccc(-c2nnnn2C)cc1 [ps298b] | 0 to 20 | 
21 | CCCCCCCC/C=C\CCCCCCCC(=O)Nc1ccc(-c2nnn[nH]2)cc1.[Na+] [ps321a] |  | GLP-1 biosynthesis and secretion from NCI-H716 L cells [1]: able to mediate GLP-1 biosynthesis and secretion; GLP-1 secretion Activity relative to oleoyl-LPI [1, 4]: Low (low GLP-1 secretion activity (0-20% of maximum GLP-1 secretion achieved with oleoyl-LPI))
22 | CCCCCCCCCCCCCCCC(=O)Nc1ccc(-c2nnn[nH]2)cc1 [ps320c] | 0 to 20 | 
